Data from patent US11066668B2, “Compositions and methods for modulation of IKBKAP splicing” (Ionis Pharmaceuticals, Inc., priority 2012, dated 2021).
Oligonucleotides are written 5' to 3', each unit as a sugar letter and its base; * is a phosphorothioate linkage, no mark a phosphodiester; rarer units and linkages stand in square brackets, end groups in braces. Plain capitals give the bases only. e = 2'-O-(2-methoxyethyl) (MOE); [5mC] = 5-methylcytosine

Tested on: IKBKAP pre-mRNA (mt19-21 minigene)
Assay: Exon 20 inclusion in HEK-293 cells harboring the mt19-21 IKBKAP minigene (RT-PCR)
Format: cell-based, human
Conditions: HEK-293 with mt19-21 minigene; for % inclusion (exon 20): Table 1, 0.007 nmol oligonucleotide by electroporation, RT-PCR two days later; for effect on exon 20 inclusion/skipping, in words: 0.007 nmol oligonucleotide
Protocol: Antisense oligonucleotides were designed targeting a human IKBKAP nucleic acid and were tested for their effects on IKBKAP pre-mRNA in vitro. Together, the overlapping antisense oligonucleotides spanned the entire 74-nucleotide region of the IKBKAP exon 20 sequence, as well as the 100-nucleotide intronic regions immediately upstream and downstream of exon 20. The antisense oligonucleotides are presented in Table 1, and were designed as uniform 2′-O-methoxyethyl ribose (MOE) oligonucleotides with phosphate backbones. Each oligonucleotide is 15 nucleosides in length. All cytosine residues throughout the oligonucleotide are 5-methylcytosines. ‘Start Site’ indicates the 5′-most nucleoside to which the oligonucleotide is targeted in the human gene sequence. “Stop site” indicates the 3′-most nucleoside to which the oligonucleotide is targeted in the human gene sequence. Each oligonucleotide listed in Table 1 is targeted to the human IKBKAP genomic sequence (the complement of GENBANK Accession No NT_008470.16 truncated from nucleotides 13290828 to Ser. No. 13/358,424, designated herein as SEQ ID NO: 1). ISIS 414161 has one mismatch with SEQ ID NO: 1.
Cultured HEK-293 cells harboring the mt19-21 minigene vector construct at a density of 7×10^5 cells per well were transfected using electroporation (Gene Pulsar II apparatus, Bio-Rad) with 0.007 nmol antisense oligonucleotide, as previously described (Hua, Y., et al., 2007. PLoS Biol 5:e73). […] These oligonucleotides served as controls for non-specific effects of uniform MOE oligonucleotides with phosphate backbones. Cells harboring the wt19-21 minigene and the mt19-21 minigene alone were also cultured and were used as controls for exon 20 inclusion levels. Two days later, cDNA synthesized from total RNA extracted from HEK-293 cells was amplified using the forward primer pCDNAF and reverse primer sequence IKAP21R4 to assay the splicing pattern of expressed RNAs by RT-PCR. To calculate exon 20 inclusion levels, the PCR amplicons were labeled with α^32P-dCTP. The PCR products were then separated by native PAGE, followed by phosphorimage analysis on a FUJIFILM FLA-5100 instrument (Fuji Medical Systems USA Inc.). The band intensities were quantified using Multi Gauge software Version 2.3 (FUJIFILM), and values were normalized for the G+C content according to the DNA sequence.
Treatment with antisense oligonucleotides targeting the 3′ and 5′ splice sites caused increased skipping of exon 20.
Additional oligonucleotides were designed targeting the first 30-nucleotide stretch of ISS-40. These oligonucleotides were designed by choosing sequences shifted in one nucleotide increments upstream and downstream (i.e., a “microwalk”) of ISS-40, starting from the +6 position in exon 20. The antisense oligonucleotides are presented in Table 2 and FIG. 4D, and were designed as uniform 2′-O-methoxyethyl ribose (MOE) oligonucleotides with phosphate backbones. Each oligonucleotide is 20 nucleosides in length. All cytosine residues throughout the oligonucleotide are 5-methylcytosines. ‘Start Site’ indicates the 5′-most nucleoside to which the oligonucleotide is targeted in the human gene sequence. “Stop site” indicates the 3′-most nucleoside to which the oligonucleotide is targeted in the human gene sequence. Each oligonucleotide listed in Table 2 is targeted to intron 20 of the human IKBKAP genomic sequence (the complement of GENBANK Accession No NT_008470.16 truncated from nucleotides 13290828 to Ser. No. 13/358,424, designated herein as SEQ ID NO: 1). These oligonucleotides were tested in vitro.
Cultured HEK-293 cells harboring the mt19-21 minigene vector construct at a density of 7×10^5 cells per well were transfected using electroporation (Gene Pulsar II apparatus, Bio-Rad) with 0.007 nmol antisense oligonucleotide, as previously described (Hua, Y., et al., 2007. PLoS Biol 5:e73). […]

ISIS 414129: uniform 2′-MOE 15-mer, phosphate backbone, 5-methylcytosines; AGAGAATTACCACAA, SEQ ID NO 8, intron 19 (eAeGeAeGeAeAeTeTeAe[5mC]e[5mC]eAe[5mC]eAeA; splice-switching)
% inclusion (exon 20): 23%

ISIS 414130: uniform 2′-MOE 15-mer, phosphate backbone; TTCACAGAGAATTAC, SEQ ID NO 9, intron 19 (eTeTe[5mC]eAe[5mC]eAeGeAeGeAeAeTeTeAe[5mC]; splice-switching)
% inclusion (exon 20): 25%

ISIS 414131: uniform 2′-MOE 15-mer, phosphate backbone; AACTCTTCACAGAGA, SEQ ID NO 10, intron 19 (eAeAe[5mC]eTe[5mC]eTeTe[5mC]eAe[5mC]eAeGeAeGeA; splice-switching)
% inclusion (exon 20): 30%

ISIS 414132: uniform 2′-MOE 15-mer, phosphate backbone; TACCTAACTCTTCAC, SEQ ID NO 11, intron 19 (eTeAe[5mC]e[5mC]eTeAeAe[5mC]eTe[5mC]eTeTe[5mC]eAe[5mC]; splice-switching)
% inclusion (exon 20): 19%

ISIS 414133: uniform 2′-MOE 15-mer, phosphate backbone; CATTTTACCTAACTC, SEQ ID NO 12, intron 19 (e[5mC]eAeTeTeTeTeAe[5mC]e[5mC]eTeAeAe[5mC]eTe[5mC]; splice-switching)
% inclusion (exon 20): 25%

ISIS 414134: uniform 2′-MOE 15-mer, phosphate backbone; TACACCATTTTACCT, SEQ ID NO 13, intron 19 (eTeAe[5mC]eAe[5mC]e[5mC]eAeTeTeTeTeAe[5mC]e[5mC]eT; splice-switching)
% inclusion (exon 20): 25%

ISIS 414135: uniform 2′-MOE 15-mer, phosphate backbone; CAGGATACACCATTT, SEQ ID NO 14, intron 19 (e[5mC]eAeGeGeAeTeAe[5mC]eAe[5mC]e[5mC]eAeTeTeT; splice-switching)
effect on exon 20 inclusion/skipping, in words: positive effect on exon 20 inclusion | % inclusion (exon 20): 46%

ISIS 414136: uniform 2′-MOE 15-mer, phosphate backbone; ATAGCCAGGATACAC, SEQ ID NO 15, intron 19 (eAeTeAeGe[5mC]e[5mC]eAeGeGeAeTeAe[5mC]eAe[5mC]; splice-switching)
effect on exon 20 inclusion/skipping, in words: positive effect on exon 20 inclusion | % inclusion (exon 20): 45%

ISIS 414137: uniform 2′-MOE 15-mer, phosphate backbone; TTTAAATAGCCAGGA, SEQ ID NO 16, intron 19 (eTeTeTeAeAeAeTeAeGe[5mC]e[5mC]eAeGeGeA; splice-switching)
effect on exon 20 inclusion/skipping, in words: positive effect on exon 20 inclusion | % inclusion (exon 20): 52%

ISIS 414138: uniform 2′-MOE 15-mer, phosphate backbone; AAACATTTAAATAGC, SEQ ID NO 17, intron 19 (eAeAeAe[5mC]eAeTeTeTeAeAeAeTeAeGe[5mC]; splice-switching)
% inclusion (exon 20): 23%

ISIS 414139: uniform 2′-MOE 15-mer, phosphate backbone; GTAGAAAACATTTAA, SEQ ID NO 18, intron 19 (eGeTeAeGeAeAeAeAe[5mC]eAeTeTeTeAeA; splice-switching)
% inclusion (exon 20): 20%

ISIS 414140: uniform 2′-MOE 15-mer, phosphate backbone; ATTAAGTAGAAAACA, SEQ ID NO 19, intron 19 (eAeTeTeAeAeGeTeAeGeAeAeAeAe[5mC]eA; splice-switching)
% inclusion (exon 20): 13%

ISIS 414141: uniform 2′-MOE 15-mer, phosphate backbone; TTTTAATTAAGTAGA, SEQ ID NO 20, intron 19 (eTeTeTeTeAeAeTeTeAeAeGeTeAeGeA; splice-switching)
% inclusion (exon 20): 24%

ISIS 414142: uniform 2′-MOE 15-mer, phosphate backbone; AACATTTTTAATTAA, SEQ ID NO 21, intron 19 (eAeAe[5mC]eAeTeTeTeTeTeAeAeTeTeAeA; splice-switching)
% inclusion (exon 20): 23%

ISIS 414143: uniform 2′-MOE 15-mer, phosphate backbone; GCAGTAACATTTTTA, SEQ ID NO 22, intron 19 (eGe[5mC]eAeGeTeAeAe[5mC]eAeTeTeTeTeTeA; splice-switching)
% inclusion (exon 20): 8%

ISIS 414144: uniform 2′-MOE 15-mer, phosphate backbone; TTAAAGCAGTAACAT, SEQ ID NO 23, intron 19 (eTeTeAeAeAeGe[5mC]eAeGeTeAeAe[5mC]eAeT; splice-switching)
% inclusion (exon 20): 7%

ISIS 414145: uniform 2′-MOE 15-mer, phosphate backbone; ATAAATTAAAGCAGT, SEQ ID NO 24, intron 19 (eAeTeAeAeAeTeTeAeAeAeGe[5mC]eAeGeT; splice-switching)
% inclusion (exon 20): 3%

ISIS 414146: uniform 2′-MOE 15-mer, phosphate backbone; CTTAAATAAATTAAA, SEQ ID NO 25, intron 19 (e[5mC]eTeTeAeAeAeTeAeAeAeTeTeAeAeA; splice-switching)
% inclusion (exon 20): 26%

ISIS 414147: uniform 2′-MOE 15-mer, phosphate backbone; GTTTCCCCTTGGCAT, SEQ ID NO 26, exon 20 (eGeTeTeTe[5mC]e[5mC]e[5mC]e[5mC]eTeTeGeGe[5mC]eAeT; splice-switching)
% inclusion (exon 20): 3%

ISIS 414148: uniform 2′-MOE 15-mer, phosphate backbone; TCTAAGTTTCCCCTT, SEQ ID NO 27, exon 20 (eTe[5mC]eTeAeAeGeTeTeTe[5mC]e[5mC]e[5mC]e[5mC]eTeT; splice-switching)
% inclusion (exon 20): 7%

ISIS 414149: uniform 2′-MOE 15-mer, phosphate backbone; CAACTTCTAAGTTTC, SEQ ID NO 28, exon 20 (e[5mC]eAeAe[5mC]eTeTe[5mC]eTeAeAeGeTeTeTe[5mC]; splice-switching)
% inclusion (exon 20): 20%

ISIS 414150: uniform 2′-MOE 15-mer, phosphate backbone; ATGAACAACTTCTAA, SEQ ID NO 29, exon 20 (eAeTeGeAeAe[5mC]eAeAe[5mC]eTeTe[5mC]eTeAeA; splice-switching)
% inclusion (exon 20): 5%

ISIS 414151: uniform 2′-MOE 15-mer, phosphate backbone; CGATGATGAACAACT, SEQ ID NO 30, exon 20 (e[5mC]eGeAeTeGeAeTeGeAeAe[5mC]eAeAe[5mC]eT; splice-switching)
% inclusion (exon 20): 0%

ISIS 414152: uniform 2′-MOE 15-mer, phosphate backbone; GGGCTCGATGATGAA, SEQ ID NO 31, exon 20 (antisense eGeGeGe[5mC]eTe[5mC]eGeAeTeGeAeTeGeAeA)
% inclusion (exon 20): 3%

ISIS 414153: uniform 2′-MOE 15-mer, phosphate backbone; AACCAGGGCTCGATG, SEQ ID NO 32, exon 20 (antisense eAeAe[5mC]e[5mC]eAeGeGeGe[5mC]eTe[5mC]eGeAeTeG)
% inclusion (exon 20): 5%

ISIS 414155: uniform 2′-MOE 15-mer, phosphate backbone; TCTGAGCTAAAACCA, SEQ ID NO 34, exon 20 (eTe[5mC]eTeGeAeGe[5mC]eTeAeAeAeAe[5mC]e[5mC]eA; splice-switching)
% inclusion (exon 20): 6%

ISIS 414156: uniform 2′-MOE 15-mer, phosphate backbone; CCGAATCTGAGCTAA, SEQ ID NO 35, exon 20 (e[5mC]e[5mC]eGeAeAeTe[5mC]eTeGeAeGe[5mC]eTeAeA; splice-switching)
% inclusion (exon 20): 5%
